Values after ≈ are worked out from the molar mass of the structure shown. Like-named read-outs stand apart in the source and are kept apart here.

Assay [1] has as its system C. albicans NCPF3281. The assay is described as follows: Candida panel MIC, serial dilution in 96-well plates. The format is cell-based, Candida albicans. The following applies: NCPF3281, read-out: MIC C. albicans NCPF3281. In short, it runs like this: (§1)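 Overnight starter cultures were diluted to OD600 0.01 and added to serially diluted compound (128 to 0.25 μg/mL) in MOPS-buffered RPMI with 2% glucose, pH 7.0, giving 0.5-5×10^5 cells/mL. After 24 h at 37 °C, OD530 was measured and the ≥50% inhibition endpoint taken as MIC.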

Assay [2] deals with C. krusei NCPF3876. The assay is described as follows: microbe, parasite or virus in culture. The format is cell-based, Candida krusei. The following applies: Pichia kudriavzevii. Put shortly:
(§2)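 MIC taken as lowest concentration inhibiting growth ≥50% relative to drug-free control, from OD530 after 24 hours at 37° C. Fungi at 0.5-5×10^5/mL were exposed to serially diluted compound in RPMI 1640/MOPS/2% glucose medium adjusted to pH 7.0.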

Assay [3] relates to C. parapsilosis NCPF3209. The experiment in a line: microbe, parasite or virus in culture. It is filed as cell-based, Candida parapsilosis. The following applies: Lodderomyces parapsilosis. In short, it runs like this:
as §2

The subject of assay [4] is Candida auris TDG2211. The experiment in a line: microbe, parasite or virus in culture. The format is cell-based. Conditions: Candidozyma auris. Put shortly:
(§3)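 MIC = lowest concentration inhibiting growth ≥50% relative to drug-free control, read by OD530 nm after 24 h at 37° C. Medium: RPMI 1640/MOPS/2% glucose, pH 7.0. Inoculum 0.5-5×10^5/mL.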

Assay [5] concerns Candida auris TDG2506. The experiment in a line: microbe, parasite or virus in culture. It is filed as cell-based. Conditions: Candidozyma auris. In short, it runs like this: as §3
Assay [6] relates to C. auris TDG1912. The assay is described as follows: Candida panel MIC, serial dilution in 96-well plates. The format is cell-based. Conditions: Candidozyma auris, TDG1912; Table 4; 24 hours, ≥50% inhibition; read-out: MIC C. auris TDG1912. In short, it runs like this: as §1
The test system of assay [7] is C. tropicalis NCPF8760. The assay is described as above. The format is cell-based. Put shortly: as §1
In assay [8] the test system is Candida auris TDG1102. The assay is described as above. The following applies: Candidozyma auris, TDG1102; Table 4, extended panel; 24 hours, ≥50% inhibition; read-out: MIC Candida auris TDG1102. The format is cell-based. In short, it runs like this:
as §1

Assay [9] has as its system Candida auris TDG2512. The assay is described as above. The format is cell-based. The following applies: Candidozyma auris, TDG2512; Table 4, extended panel; 24 hours, ≥50% inhibition; read-out: MIC Candida auris TDG2512. In short, it runs like this:
as §1

The subject of assay [10] is panel of Candida species. The experiment in a line: Candida panel MIC, statements on the whole panel. The following applies: in words. It is filed as cell-based. As to the method: (§4) The minimum inhibitory concentration of test compounds were determined in a panel of Candida species (see Table 4 below), using the a serial dilution method in 96-well plates using the following protocol.
(§5) Starter cultures of fungal strains to be tested were grown in 3 mL of RPMI 2% glucose media incubated at 37° C. with shaking at 200 rpm overnight. The culture media used was 900 mL H2O; 10.4 g RPMI 1640 (with L-glutamine and a pH indicator but without bicarbonate); 34.5 g MOPS and 18 g glucose. The pH of the media was adjusted to 7.0 with 1 M sodium hydroxide.
(§6) Solutions of the compound to be tested were prepared by dissolving the compound in DMSO and subsequently into media to the desired concentrations. 200 μL of compound solution was then added to the wells of the 96-well plate using a serial dilution method row-by row of the plate to give a compound concentration gradient across the plate of from 128 μg/mL to 0.25 μg/mL. The last two rows of each plate were control rows containing the culture media alone and the media plus fungi.
(§7) The fungi starter cultures were diluted 1:10 in water in cuvettes. This was then further diluted to an optical density (OD600) of 0.01 in media. 100 μL of the fungi was added to each well giving a starting concentration of fungus of 0.5-5×10^5/mL. One species of fungus was used on each plate. The plates were then held at 37° C. for 24 hours.
(§8) A plate reader was used to measure growth in each well at OD530 nm and the MIC was determined for each test compound. The MIC is defined as the lowest concentration giving rise to inhibition of ≥50% of that of the drug-free control well containing the fungus and media.

For assay [11], the system named is C. glabrata NCPF8018. The assay is described as follows: Candida panel MIC, serial dilution in 96-well plates. The format is cell-based, Candida glabrata. The following applies: Nakaseomyces glabratus. In short, it runs like this: as §2
Assay [12] relates to C. auris 8971. The assay is described as above. The format is cell-based, Candida auris. Put shortly:
as §3

For assay [13], the system named is C. auris 8977. The assay is described as above. The format is cell-based, Candida auris. In short, it runs like this:
as §3

Assay [14] relates to C. auris 8984. The description is as above. It is filed as cell-based, Candida auris. Put shortly: as §3
For assay [15], the system named is C. albicans 3363. The assay is described as follows: Candida albicans panel MIC. It is filed as cell-based. The following applies: Table 6, Candida albicans panel. As to the method:
as §4, §5, §6, §7, §8
(§9) The compounds shown in Table 6 were tested against a further panel of Candida albicans.

Assay [16] relates to C. albicans 3645. The experiment in a line: Candida albicans panel MIC. It is filed as cell-based. The following applies: Table 6, Candida albicans panel. As to the method:
as §4, §5, §6, §7, §8, §9

The test system of assay [17] is C. albicans 3880. The experiment in a line: Candida albicans panel MIC. The format is cell-based. Conditions: Table 6, Candida albicans panel. How it is done: as §4, §5, §6, §7, §8, §9
The test system of assay [18] is C. albicans 3881. The assay is described as follows: Candida albicans panel MIC. It is filed as cell-based. Conditions: Table 6, Candida albicans panel. How it is done:
as §4, §5, §6, §7, §8, §9

The subject of assay [19] is C. albicans 3882. The experiment in a line: Candida albicans panel MIC. Conditions: Table 6, Candida albicans panel. The format is cell-based. How it is done: as §4, §5, §6, §7, §8, §9
The test system of assay [20] is C. albicans 3990. The experiment in a line: Candida albicans panel MIC. It is filed as cell-based. Conditions: Table 6, Candida albicans panel. How it is done: as §4, §5, §6, §7, §8, §9
Assay [21] relates to C. albicans 8112. The assay is described as follows: Candida albicans panel MIC. Conditions: Table 6, Candida albicans panel. It is filed as cell-based. How it is done:
as §4, §5, §6, §7, §8, §9

Setting [22] is: Candida albicans, Table 4, common panel, 24 hours, ≥50% inhibition.
The mark [23] stands for this setting: NCPF3876, Table 4, common panel, 24 hours, ≥50% inhibition, read-out: MIC C. krusei NCPF3876.
Setting [24] is: NCPF3209, Table 4, common panel, 24 hours, ≥50% inhibition, read-out: MIC C. parapsilosis NCPF3209.
The mark [25] stands for this setting: TDG2211, Table 4, extended panel, 24 hours, ≥50% inhibition, read-out: MIC Candida auris TDG2211.
Where [26] appears, read: TDG2506, Table 4, extended panel, 24 hours, ≥50% inhibition, read-out: MIC Candida auris TDG2506.
Setting [27] is: NCPF8760, Table 4, common panel, 24 hours, ≥50% inhibition, read-out: MIC C. tropicalis NCPF8760.

For the compound `COc1ccc(-c2ccc(NC3CCN(CC(O)(Cn4cncn4)c4ccc(F)cc4F)CC3)cc2)cc1` (stereo not shown) [Example 4, 2-(2,4-difluorophenyl)-1-(4-((4′-methoxy-[1,1′-biphenyl]-4-yl)amino)piperidin-1-yl)-3-(1H-1,2,4-triazol-1-yl)propan-2-ol], the MIC is 8 ng/mL (≈ 0.0154 µM) in assay [1] (setting [22]); 0.004 to 0.125 µg/mL (≈ 0.0077 to 0.241 µM) in [2] (setting [23]); 4 ng/mL (≈ 0.0077 µM) in assay [3] (setting [24]); 6 ng/mL (≈ 0.0115 µM) in assay [4] (setting [25]); at most 0.003 µg/mL in assay [5] (setting [26]); 0.06 µg/mL (≈ 0.115 µM) in assay [6]. The MIC in [7] (setting [27]) was 0.25 µg/mL (≈ 0.481 µM); in assay [8], 6 ng/mL (≈ 0.0115 µM); in assay [9], at most 3 ng/mL. In addition, the “Activity against Candida auris including resistant strains” value in [10] is listed as “highly active”.

Take `N#Cc1ccccc1-c1ccc(NC2CCN(CC(O)(Cn3cncn3)c3ccc(F)cc3F)CC2)cc1` (stereo not shown) [Example 5, 4′-((1-(2-(2,4-difluorophenyl)-2-hydroxy-3-(1H-1,2,4-triazol-1-yl)propyl)piperidin-4-yl)amino)-[1,1′-biphenyl]-2-carbonitrile]: the MIC in assay [1] (setting [22]) is 2 to 4 ng/mL (≈ 0.00389 to 0.00777 µM); in [11] (NCPF8018, Table 4, common panel, 24 hours, ≥50% inhibition, read-out: MIC C. glabrata NCPF8018), 0.125 µg/mL (≈ 0.243 µM); in [2] (setting [23]), 0.002 to 0.125 µg/mL (≈ 0.00389 to 0.243 µM); in assay [3] (setting [24]) it was 4 ng/mL (≈ 0.00777 µM); in [4] (setting [25]), 6 ng/mL (≈ 0.0117 µM); in assay [5] (setting [26]), 0.006 µg/mL (≈ 0.0117 µM). Further, the MIC in assay [6] was 0.03 µg/mL (≈ 0.0583 µM); in [7] (setting [27]), 0.008 to 0.25 µg/mL (≈ 0.0155 to 0.486 µM); in assay [8], at most 3 ng/mL; in assay [9], at most 3 ng/mL. In addition, in assay [10], the “Activity against Candida auris including resistant strains” value is given as “highly active”.

As to `C[C@@H](c1ncncc1F)[C@](O)(Cn1cncn1)c1ccc(F)cc1F` [Voriconazole, voriconazole, reference compound], the MIC in assay [1] (Table 6, Candida albicans panel) is at most 7 ng/mL; in assay [11] (NCPF8018, read-out: MIC C. Glabrata NCPF8018) it was 1 µg/mL (≈ 2.86 µM); in assay [2] (NCPF3876, read-out: MIC C. Krusei NCPF3876) it was 0.5 to 2 µg/mL (≈ 1.43 to 5.73 µM); in assay [3] (NCPF3209, read-out: MIC C. Parapsilosis NCPF3209), at most 250 ng/mL; in assay [4] (TDG2211, read-out: MIC C. auris 2211) it was above 128000 ng/mL; in assay [4] (setting [25]), above 128000 ng/mL. Also, the MIC in assay [5] (TDG2506, read-out: MIC C. auris 2506) was 2 µg/mL (≈ 5.73 µM); in [5] (setting [26]), 2 µg/mL (≈ 5.73 µM); in assay [6], above 32 µg/mL; in [7] (NCPF8760, read-out: MIC C. Tropicalis NCPF8760) it was 4 µg/mL (≈ 11.5 µM); in assay [8], above 128000 ng/mL; in assay [9], above 128000 ng/mL. In addition, the MIC was above 32 µg/mL in assay [12] (Candidozyma auris, 8971, read-out: MIC C. auris 8971); above 32 µg/mL in assay [12] (Candidozyma auris, 8971, Table 4, extended panel, 24 hours, ≥50% inhibition, read-out: MIC C. auris 8971); 32 µg/mL (≈ 91.6 µM) in [13] (Candidozyma auris, 8977, read-out: MIC C. auris 8977); 32 µg/mL (≈ 91.6 µM) in assay [13] (Candidozyma auris, 8977, Table 4, extended panel, 24 hours, ≥50% inhibition, read-out: MIC C. auris 8977); above 128 µg/mL in assay [14] (Candidozyma auris, 8984, read-out: MIC C. auris 8984); above 128 µg/mL in [14] (Candidozyma auris, 8984, Table 4, extended panel, 24 hours, ≥50% inhibition, read-out: MIC C. auris 8984). Further, the MIC in assay [15] is 1 µg/mL (≈ 2.86 µM); in [16], at most 7.8 ng/mL; in [17], 0.25 µg/mL (≈ 0.716 µM); in [18] it was 0.25 µg/mL (≈ 0.716 µM); in assay [19], 0.25 µg/mL (≈ 0.716 µM); in assay [20], 0.25 µg/mL (≈ 0.716 µM). Also, the MIC in assay [21] was at most 7.81 ng/mL.

Source of the values: patent US20240246920A1, “TRIAZOLE DERIVATIVES WITH ANTIFUNGAL ACTIVITY” (King's College London, priority 2020, published 2024).
